The values that follow come from ChEMBL document CHEMBL5291721, “A preclinical secondary pharmacology resource illuminates target-adverse drug reaction associations of marketed drugs” (Nat Commun, 2023).

Broadly, the AC50 is the midpoint of the concentration-response curve, whichever way the signal moves.

Test [1] has as its target T1, Alpha-2B adrenergic receptor (Homo sapiens, UniProt P18089).
T1 sequence (P18089 whole entry): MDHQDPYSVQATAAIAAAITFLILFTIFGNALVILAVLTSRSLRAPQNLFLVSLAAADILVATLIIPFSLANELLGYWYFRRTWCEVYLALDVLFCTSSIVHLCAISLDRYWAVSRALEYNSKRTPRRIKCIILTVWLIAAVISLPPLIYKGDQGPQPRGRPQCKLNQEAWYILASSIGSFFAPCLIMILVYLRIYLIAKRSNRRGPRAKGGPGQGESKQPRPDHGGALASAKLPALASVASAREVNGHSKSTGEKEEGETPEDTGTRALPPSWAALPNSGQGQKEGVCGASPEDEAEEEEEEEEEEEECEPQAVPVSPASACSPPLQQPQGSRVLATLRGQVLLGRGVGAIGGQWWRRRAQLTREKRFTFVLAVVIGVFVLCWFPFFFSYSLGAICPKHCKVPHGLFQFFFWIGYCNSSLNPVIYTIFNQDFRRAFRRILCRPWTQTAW

Test [2] addresses Beta-2 adrenergic receptor (Homo sapiens, UniProt P07550).
The target of test [3] is Voltage-dependent L-type calcium channel subunit alpha-1C (Rattus norvegicus, UniProt P22002). It counts as functional.
Chain of Voltage-dependent L-type calcium channel subunit alpha-1C (P22002 whole entry): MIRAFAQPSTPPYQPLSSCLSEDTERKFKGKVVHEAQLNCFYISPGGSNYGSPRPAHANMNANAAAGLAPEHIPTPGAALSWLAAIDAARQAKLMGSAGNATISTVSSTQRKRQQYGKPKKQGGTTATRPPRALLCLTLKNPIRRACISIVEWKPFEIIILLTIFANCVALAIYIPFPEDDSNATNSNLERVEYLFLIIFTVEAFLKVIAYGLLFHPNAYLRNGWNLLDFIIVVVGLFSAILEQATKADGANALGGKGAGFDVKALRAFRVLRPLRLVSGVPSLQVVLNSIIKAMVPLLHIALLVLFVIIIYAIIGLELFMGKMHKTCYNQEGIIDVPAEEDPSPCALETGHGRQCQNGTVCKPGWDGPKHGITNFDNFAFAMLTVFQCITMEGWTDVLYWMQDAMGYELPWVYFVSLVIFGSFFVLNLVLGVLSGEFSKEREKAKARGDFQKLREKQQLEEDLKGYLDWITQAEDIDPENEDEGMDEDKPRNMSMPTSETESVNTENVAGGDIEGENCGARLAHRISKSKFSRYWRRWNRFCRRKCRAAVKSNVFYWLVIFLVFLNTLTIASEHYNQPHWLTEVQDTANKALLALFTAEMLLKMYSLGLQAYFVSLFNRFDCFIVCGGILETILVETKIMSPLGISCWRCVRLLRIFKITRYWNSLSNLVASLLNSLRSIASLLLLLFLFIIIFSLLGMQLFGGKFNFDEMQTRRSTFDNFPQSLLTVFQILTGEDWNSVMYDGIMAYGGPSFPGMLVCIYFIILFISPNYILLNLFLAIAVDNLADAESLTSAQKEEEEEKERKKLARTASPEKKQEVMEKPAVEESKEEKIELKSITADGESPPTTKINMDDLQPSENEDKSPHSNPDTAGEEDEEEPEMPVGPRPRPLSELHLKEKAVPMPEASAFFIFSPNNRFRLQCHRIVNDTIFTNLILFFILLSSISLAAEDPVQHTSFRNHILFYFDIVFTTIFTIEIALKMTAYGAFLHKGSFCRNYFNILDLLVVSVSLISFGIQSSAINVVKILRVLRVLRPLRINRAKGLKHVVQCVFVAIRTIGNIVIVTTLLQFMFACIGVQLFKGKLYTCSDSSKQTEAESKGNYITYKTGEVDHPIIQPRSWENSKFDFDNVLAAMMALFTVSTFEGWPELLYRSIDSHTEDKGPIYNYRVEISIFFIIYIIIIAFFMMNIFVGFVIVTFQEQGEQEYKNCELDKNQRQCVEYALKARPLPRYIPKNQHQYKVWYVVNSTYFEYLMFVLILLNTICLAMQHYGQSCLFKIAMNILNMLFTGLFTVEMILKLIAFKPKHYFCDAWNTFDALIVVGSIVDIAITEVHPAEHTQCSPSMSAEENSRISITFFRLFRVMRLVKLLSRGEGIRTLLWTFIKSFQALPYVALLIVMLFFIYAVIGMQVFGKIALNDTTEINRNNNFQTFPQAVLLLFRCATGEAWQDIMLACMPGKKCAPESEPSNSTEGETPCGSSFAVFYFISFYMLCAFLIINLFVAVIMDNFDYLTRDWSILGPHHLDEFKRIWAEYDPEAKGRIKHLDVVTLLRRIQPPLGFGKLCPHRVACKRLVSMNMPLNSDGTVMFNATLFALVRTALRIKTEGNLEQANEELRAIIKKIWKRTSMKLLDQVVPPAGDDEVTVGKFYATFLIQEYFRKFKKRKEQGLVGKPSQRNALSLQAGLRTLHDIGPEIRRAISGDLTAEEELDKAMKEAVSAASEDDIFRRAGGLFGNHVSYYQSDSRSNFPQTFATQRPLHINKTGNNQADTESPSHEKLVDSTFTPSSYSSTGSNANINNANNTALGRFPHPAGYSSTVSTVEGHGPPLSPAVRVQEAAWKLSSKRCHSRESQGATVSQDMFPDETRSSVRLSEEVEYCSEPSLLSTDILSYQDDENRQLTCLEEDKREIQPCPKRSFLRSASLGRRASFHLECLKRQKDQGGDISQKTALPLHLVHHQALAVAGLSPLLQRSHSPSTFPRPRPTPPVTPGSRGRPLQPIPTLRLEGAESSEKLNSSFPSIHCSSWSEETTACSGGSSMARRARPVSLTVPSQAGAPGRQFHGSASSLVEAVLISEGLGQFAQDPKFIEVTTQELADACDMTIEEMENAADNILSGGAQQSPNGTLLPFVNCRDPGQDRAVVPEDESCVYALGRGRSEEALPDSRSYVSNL
For test [4], the target named is T2, Gastrin/cholecystokinin type B receptor (Homo sapiens, UniProt P32239).
T2 sequence (P32239 whole entry): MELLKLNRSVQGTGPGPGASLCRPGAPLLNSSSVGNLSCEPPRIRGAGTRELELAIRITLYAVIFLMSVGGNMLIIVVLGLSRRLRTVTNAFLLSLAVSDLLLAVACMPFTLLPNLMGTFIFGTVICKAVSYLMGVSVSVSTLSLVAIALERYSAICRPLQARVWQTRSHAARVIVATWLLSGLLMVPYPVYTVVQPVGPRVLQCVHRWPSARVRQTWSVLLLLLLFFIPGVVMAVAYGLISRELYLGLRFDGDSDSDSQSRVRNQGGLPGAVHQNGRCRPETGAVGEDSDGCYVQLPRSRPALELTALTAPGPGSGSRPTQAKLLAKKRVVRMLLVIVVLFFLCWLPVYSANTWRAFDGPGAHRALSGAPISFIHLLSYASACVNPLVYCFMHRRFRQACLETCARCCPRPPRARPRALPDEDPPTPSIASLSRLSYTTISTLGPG

Test [5] addresses Glutamate receptor ionotropic, NMDA 1 (Rattus norvegicus, UniProt P35439).
Test [6] addresses T3, 5-hydroxytryptamine receptor 2C (Homo sapiens, UniProt P28335).
T3 sequence (P28335 whole entry): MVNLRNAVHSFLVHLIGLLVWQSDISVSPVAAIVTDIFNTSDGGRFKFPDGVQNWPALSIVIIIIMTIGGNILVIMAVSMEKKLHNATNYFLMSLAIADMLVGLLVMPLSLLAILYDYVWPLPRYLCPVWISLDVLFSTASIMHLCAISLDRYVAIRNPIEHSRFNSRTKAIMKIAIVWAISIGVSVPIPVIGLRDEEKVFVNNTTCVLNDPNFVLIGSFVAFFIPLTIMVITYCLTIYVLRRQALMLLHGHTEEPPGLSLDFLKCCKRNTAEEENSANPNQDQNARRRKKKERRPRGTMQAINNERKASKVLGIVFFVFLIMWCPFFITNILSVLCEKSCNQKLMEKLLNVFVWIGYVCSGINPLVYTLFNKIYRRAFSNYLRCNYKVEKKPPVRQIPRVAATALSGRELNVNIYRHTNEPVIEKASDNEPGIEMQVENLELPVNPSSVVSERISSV

The target of test [7] is T4, Equilibrative nucleoside transporter 1 (Homo sapiens, UniProt Q99808).
T4 sequence (Q99808 whole entry): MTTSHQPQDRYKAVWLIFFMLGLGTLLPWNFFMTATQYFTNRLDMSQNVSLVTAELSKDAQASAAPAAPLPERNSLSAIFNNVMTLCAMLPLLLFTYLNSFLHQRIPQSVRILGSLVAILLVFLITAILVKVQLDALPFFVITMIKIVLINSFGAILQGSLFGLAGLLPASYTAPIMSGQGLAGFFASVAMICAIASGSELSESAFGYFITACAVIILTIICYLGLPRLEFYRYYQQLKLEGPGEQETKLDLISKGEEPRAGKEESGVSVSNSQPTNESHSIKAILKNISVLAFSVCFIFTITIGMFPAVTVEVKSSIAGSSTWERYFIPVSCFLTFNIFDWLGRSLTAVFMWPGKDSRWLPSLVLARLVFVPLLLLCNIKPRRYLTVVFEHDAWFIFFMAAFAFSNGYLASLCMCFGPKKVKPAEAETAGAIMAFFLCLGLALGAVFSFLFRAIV

For test [8], the target named is Sodium-dependent dopamine transporter (Homo sapiens, UniProt Q01959).
Chain of Sodium-dependent dopamine transporter (Q01959 whole entry): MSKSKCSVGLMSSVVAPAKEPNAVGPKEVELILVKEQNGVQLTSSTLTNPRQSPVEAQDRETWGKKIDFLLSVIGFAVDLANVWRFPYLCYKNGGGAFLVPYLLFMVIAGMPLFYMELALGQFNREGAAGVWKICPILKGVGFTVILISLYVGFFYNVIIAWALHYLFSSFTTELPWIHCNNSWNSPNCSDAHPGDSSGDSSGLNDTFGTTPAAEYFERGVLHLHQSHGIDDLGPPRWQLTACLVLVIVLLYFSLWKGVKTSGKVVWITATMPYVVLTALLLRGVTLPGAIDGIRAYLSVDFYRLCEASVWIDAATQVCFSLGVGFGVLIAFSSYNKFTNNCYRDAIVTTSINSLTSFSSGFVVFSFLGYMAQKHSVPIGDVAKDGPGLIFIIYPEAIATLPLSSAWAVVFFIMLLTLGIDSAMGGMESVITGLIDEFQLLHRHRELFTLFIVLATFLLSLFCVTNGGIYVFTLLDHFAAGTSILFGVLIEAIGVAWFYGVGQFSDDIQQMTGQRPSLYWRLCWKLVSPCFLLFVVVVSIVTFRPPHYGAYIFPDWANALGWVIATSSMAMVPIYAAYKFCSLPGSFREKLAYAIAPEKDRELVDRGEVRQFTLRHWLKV
Further: assay procedure not described here.

For `CC(C)(N)Cc1ccccc1` [PHENTERMINE], the AC50 in test [1] is greater than 10 µM; in test [2], greater than 10 µM; in test [3] it was greater than 10 µM; in test [4], greater than 30 µM; in test [5] it was greater than 10 µM; in test [6], greater than 30 µM. Moreover, the AC50 in test [7] and in test [8] was greater than 30 µM each time.

On to `CCC(=O)[C@@]1(C)[C@H](C)C[C@H]2[C@@H]3CCC4=CC(=O)C=C[C@]4(C)[C@H]3[C@@H](O)C[C@@]21C` [RIMEXOLONE], for which the AC50 is greater than 10 µM in test [1]; greater than 10 µM in test [2]; greater than 10 µM in test [3]; greater than 10 µM in test [5]; greater than 30 µM in test [6]; greater than 10 µM in test [7]. The half-maximal activity concentration (AC50) in test [8] is greater than 10 µM.

For `CCN(CC)C(C)C(=O)c1ccccc1` (stereo not given) [DIETHYLPROPION], the AC50 is 13 µM in test [1]; greater than 10 µM in test [2]; greater than 10 µM in test [3]; greater than 30 µM in test [4]; greater than 10 µM in test [5]; greater than 30 µM in test [6]. The AC50 in test [7] and in test [8] was greater than 30 µM throughout.

With `CC(=O)[C@@]1(O)CC[C@H]2[C@@H]3C[C@H](C)C4=CC(=O)C=C[C@]4(C)[C@@]3(F)[C@@H](O)C[C@@]21C` [FLUOROMETHOLONE], the AC50 in test [2] was greater than 10 µM; in test [3] it was greater than 10 µM; in test [5], greater than 10 µM; in test [6], greater than 30 µM; in test [7], greater than 10 µM; in test [8], greater than 10 µM.

Turning to `Nc1cc(N2CCCCC2)nc(N)[n+]1[O-]` [MINOXIDIL], the AC50 in test [2] is greater than 30 µM; in test [3], greater than 10 µM; in test [4], greater than 30 µM; in test [5] it was greater than 10 µM; in test [6] it was greater than 30 µM; in test [8] it was greater than 30 µM.

As for `NS(=O)(=O)c1ccc(N2CCCCS2(=O)=O)cc1`, the AC50 in test [1], in test [2], in test [4], in test [5], in test [6] and in test [8] was greater than 30 µM in each case.

As to TEPRENONE, the AC50 in test [1] is greater than 10 µM; in test [2] it was greater than 30 µM; in test [3], greater than 10 µM; in test [4] it was greater than 30 µM; in test [5] it was greater than 10 µM; in test [6], greater than 30 µM. The compound further displayed a half-maximal activity concentration (AC50) in test [8] greater than 30 µM.

Consider `CC(NC(C)(C)C)C(=O)c1cccc(Cl)c1` (stereo not given) [BUPROPION], for which the AC50 is greater than 10 µM in test [2]; greater than 10 µM in test [3]; greater than 30 µM in test [4]; greater than 10 µM in test [5]; greater than 30 µM in test [6]; greater than 30 µM in test [7].

Regarding `CN1C2CCCC1CC(NC(=O)c1nn(C)c3ccccc13)C2` (stereo not given) [GRANISETRON], the AC50 in test [2] is greater than 10 µM; in test [3], greater than 10 µM; in test [4], greater than 30 µM; in test [5] it was greater than 10 µM; in test [7], greater than 30 µM; in test [8], greater than 10 µM.

Regarding `CCN(CC)CC(=O)Nc1c(C)cccc1C` [LIDOCAINE], the AC50 in test [4] and in test [7] was greater than 30 µM throughout.

As to `CN1C(=O)CN=C(c2ccccc2F)c2cc([N+](=O)[O-])ccc21` [FLUNITRAZEPAM], the concentration at half-maximal activity (AC50) in test [1] was greater than 10 µM; in test [2] it was greater than 10 µM; in test [3] it was greater than 10 µM; in test [5], greater than 10 µM; in test [6], greater than 30 µM; in test [7], greater than 30 µM. The AC50 in test [8] is greater than 10 µM.

On to `O=C(O)CCCC[C@@H]1SC[C@@H]2NC(=O)N[C@@H]21` [BIOTIN], for which the AC50 in test [1] was greater than 10 µM; in test [3], greater than 10 µM; in test [6], greater than 30 µM; in test [7] it was greater than 10 µM; in test [8] it was greater than 10 µM.

Consider `Cc1nnc2n1-c1ccc(Cl)cc1C(c1ccccc1)=NC2` [ALPRAZOLAM], for which the AC50 in test [2] was greater than 10 µM; in test [3] it was greater than 10 µM; in test [4], greater than 30 µM; in test [5], greater than 10 µM; in test [6], greater than 30 µM; in test [7] it was greater than 30 µM. The compound also registered a half-maximal activity concentration (AC50) in test [8] greater than 10 µM.

Turning to `N=C(N)NC(=O)Cc1c(Cl)cccc1Cl` [GUANFACINE], the AC50 is greater than 10 µM in test [2]; greater than 30 µM in test [3]; greater than 30 µM in test [4]; greater than 30 µM in test [5]; 10 µM in test [6]; greater than 30 µM in test [7]. This compound also showed a concentration at half-maximal activity (AC50) in test [8] greater than 30 µM.

With `CC1=C(CC(=O)O)c2cc(F)ccc2/C1=C\c1ccc([S+](C)[O-])cc1` (stereo not given), the AC50 is greater than 10 µM in test [2]; greater than 10 µM in test [3]; greater than 30 µM in test [4]; greater than 10 µM in test [5]; greater than 30 µM in test [6]; greater than 30 µM in test [7]. In addition, the AC50 in test [8] was greater than 30 µM.

As to `CCOC(=O)O[C@]1(C(=O)COC(=O)CC)CC[C@H]2[C@@H]3CCC4=CC(=O)C=C[C@]4(C)[C@H]3[C@@H](O)C[C@@]21C` [PREDNICARBATE], the AC50 in test [1] was greater than 10 µM; in test [2] it was greater than 10 µM; in test [3], greater than 10 µM; in test [5], greater than 10 µM; in test [6], greater than 30 µM; in test [7], greater than 10 µM. In test [8], the AC50 is greater than 10 µM.

Regarding `OCCN(CCO)c1nc(N2CCCCC2)c2nc(N(CCO)CCO)nc(N3CCCCC3)c2n1` [DIPYRIDAMOLE], the AC50 in test [3], in test [4], in test [5], in test [6] and in test [8] was greater than 30 µM throughout.

`O=C1CN=C(c2ccccc2Cl)c2cc([N+](=O)[O-])ccc2N1` [CLONAZEPAM]: the concentration at half-maximal activity (AC50) in test [2] is greater than 10 µM; in test [3] it was greater than 10 µM; in test [4] it was greater than 30 µM; in test [5], greater than 10 µM; in test [6], greater than 30 µM; in test [7], greater than 30 µM. In test [8], the AC50 was greater than 10 µM.

As to `CC1Cc2ccccc2N1NC(=O)c1ccc(Cl)c(S(N)(=O)=O)c1` (stereo not given) [INDAPAMIDE], the AC50 in test [2] is greater than 10 µM; in test [3], greater than 10 µM; in test [4], greater than 30 µM; in test [5] it was greater than 10 µM; in test [6] it was greater than 30 µM; in test [7], greater than 30 µM. Moreover, in test [8], the half-maximal activity concentration (AC50) was greater than 30 µM.

With `CC(=O)OCC(=O)[C@@]1(O)CC[C@H]2[C@@H]3CCC4=CC(=O)CC[C@]4(C)[C@@]3(F)[C@@H](O)C[C@@]21C` [FLUDROCORTISONE ACETATE], the AC50 in test [2], in test [3], in test [4], in test [5], in test [6] and in test [7] was greater than 30 µM throughout. The compound also came in with an AC50 in test [8] greater than 30 µM.

Regarding `CCOC(=O)C1=C(C)NC(C)=C(C(=O)OC)C1c1cccc(Cl)c1Cl` (stereo not given) [FELODIPINE], the AC50 in test [2] was greater than 10 µM; in test [3] it was 0.0204 µM; in test [4], greater than 30 µM; in test [5], greater than 10 µM; in test [6], greater than 10 µM; in test [7], 28 µM. The same compound yielded an AC50 in test [8] of 13.3 µM.
